Test results from publication PMC8955975, “Pyrazolo[4,3-c]pyridine Sulfonamides as Carbonic Anhydrase Inhibitors: Synthesis, Biological and In Silico Studies” (Pharmaceuticals, 2022).
Values joined by “and” are separate entries in the source; they are usually repeats but may differ in a detail not shown here. Equal values may be shown once.

Legend:
[1] = molecular target: γ-CA from Porphyromonas gingivalis (PgiCAγ) (Porphyromonas gingivalis, UniProt Q7MV79); assay type: biochemical; conditions: for Ki: stopped-flow CO2 hydrase assay, mean from 3 different assays
Sequence of γ-CA from Porphyromonas gingivalis (PgiCAγ) (Q7MV79 entry or part of it): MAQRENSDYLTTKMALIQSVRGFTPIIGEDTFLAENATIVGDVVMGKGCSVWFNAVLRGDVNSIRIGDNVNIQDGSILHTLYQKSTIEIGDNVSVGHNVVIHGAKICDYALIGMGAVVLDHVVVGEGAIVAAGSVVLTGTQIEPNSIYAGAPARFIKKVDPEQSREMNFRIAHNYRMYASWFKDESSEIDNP

hCA IX = hCA IX (Homo sapiens, UniProt Q16790); assay: stopped-flow CO2 hydrase assay, hCA IX; assay type: biochemical; conditions: for selectivity index (SI) for hCA I: hCA IX inhibitor, hCA IX versus hCA I; for Ki: stopped-flow CO2 hydrase assay, mean from 3 different assays
γ-CA from E. coli = γ-CA from E. coli (Escherichia coli, UniProt P0A9W9); assay type: biochemical; conditions: for Ki: stopped-flow CO2 hydrase assay, mean from 3 different assays; for selectivity index (SI) against BpsCAβ: E. coli γ versus BpsCAβ; for selectivity index (SI) against BpsCAγ: E. coli γ versus BpsCAγ; for selectivity index (SI) against E. coli β: E. coli γ versus E. coli β; for selectivity index (SI) against PgiCAγ: E. coli γ versus PgiCAγ
Sequence of γ-CA from E. coli (P0A9W9 whole entry): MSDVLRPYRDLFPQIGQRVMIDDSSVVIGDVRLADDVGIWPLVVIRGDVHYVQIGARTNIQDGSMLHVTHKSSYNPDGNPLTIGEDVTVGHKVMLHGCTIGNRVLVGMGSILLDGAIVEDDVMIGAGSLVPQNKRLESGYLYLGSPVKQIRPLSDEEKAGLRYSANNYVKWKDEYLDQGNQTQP

hCA I = hCA I (Homo sapiens, UniProt P00915); assay: stopped-flow CO2 hydrase assay, hCA I; assay type: biochemical; conditions: for Ki: stopped-flow CO2 hydrase assay, mean from 3 different assays
Sequence of hCA I (P00915 whole entry): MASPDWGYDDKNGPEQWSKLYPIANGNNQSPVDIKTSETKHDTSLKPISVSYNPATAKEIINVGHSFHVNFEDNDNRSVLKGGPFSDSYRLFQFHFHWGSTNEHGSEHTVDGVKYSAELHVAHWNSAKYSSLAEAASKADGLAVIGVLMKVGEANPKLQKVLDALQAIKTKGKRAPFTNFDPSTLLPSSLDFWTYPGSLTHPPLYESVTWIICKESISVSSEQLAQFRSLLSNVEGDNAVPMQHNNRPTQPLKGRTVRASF

[2] = molecular target: β-CA from Burkholderia pseudomallei (BpsCAβ) (Burkholderia pseudomallei, UniProt Q63Y17); assay type: biochemical; conditions: for Ki: read-out: KI BpsCAβ
Sequence of β-CA from Burkholderia pseudomallei (BpsCAβ) (Q63Y17 1-256): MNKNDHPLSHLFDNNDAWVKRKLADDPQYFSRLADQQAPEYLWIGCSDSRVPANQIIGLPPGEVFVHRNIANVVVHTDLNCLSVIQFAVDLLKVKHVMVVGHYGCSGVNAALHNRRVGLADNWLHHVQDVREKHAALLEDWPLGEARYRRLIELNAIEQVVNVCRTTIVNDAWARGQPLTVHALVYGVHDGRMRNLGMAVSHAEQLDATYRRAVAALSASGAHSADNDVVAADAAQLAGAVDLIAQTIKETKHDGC

hCA II = hCA II (Homo sapiens, UniProt P00918); assay: stopped-flow CO2 hydrase assay, hCA II; assay type: biochemical; conditions: for Ki: stopped-flow CO2 hydrase assay, mean from 3 different assays, read-out: KI hCAII; for selectivity index (SI) toward hCA I / selectivity index (SI) towards hCA IX / selectivity index (SI) towards hCA XII: hCA II inhibitor; for selectivity index (SI) toward hCA I: hCA II versus hCA I; for selectivity index (SI) towards hCA IX: hCA II versus hCA IX; for selectivity index (SI) towards hCA XII: hCA II versus hCA XII
β-CA from E. coli = β-CA from E. coli (Escherichia coli, UniProt P61517); assay: stopped-flow CO2 hydrase assay, E. coli β-CA; assay type: biochemical
Sequence of β-CA from E. coli (P61517 whole entry): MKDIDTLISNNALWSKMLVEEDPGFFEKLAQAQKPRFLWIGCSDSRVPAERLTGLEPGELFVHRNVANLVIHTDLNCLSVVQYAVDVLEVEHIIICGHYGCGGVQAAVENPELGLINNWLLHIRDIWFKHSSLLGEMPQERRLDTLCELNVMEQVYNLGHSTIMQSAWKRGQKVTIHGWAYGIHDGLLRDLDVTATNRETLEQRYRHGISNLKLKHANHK

hCA XII = hCA XII (Homo sapiens, UniProt O43570); assay: stopped-flow CO2 hydrase assay, hCA XII; assay type: biochemical; conditions: for Ki: stopped-flow CO2 hydrase assay, mean from 3 different assays
Sequence of hCA XII (O43570 25-354): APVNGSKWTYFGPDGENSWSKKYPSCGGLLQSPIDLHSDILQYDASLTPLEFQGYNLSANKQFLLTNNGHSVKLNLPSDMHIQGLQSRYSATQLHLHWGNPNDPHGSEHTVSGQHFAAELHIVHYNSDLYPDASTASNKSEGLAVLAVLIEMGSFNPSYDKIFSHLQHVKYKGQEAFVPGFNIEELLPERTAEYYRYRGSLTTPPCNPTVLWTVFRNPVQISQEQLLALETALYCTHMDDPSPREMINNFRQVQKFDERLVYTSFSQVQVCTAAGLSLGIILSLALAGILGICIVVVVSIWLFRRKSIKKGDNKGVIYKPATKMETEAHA

[3] = molecular target: β-CA from Vibrio cholerae (VhCAβ) (Vibrio cholerae, UniProt A0A086SLX8); assay: biochemical
Sequence of β-CA from Vibrio cholerae (VhCAβ) (A0A086SLX8 entry or part of it): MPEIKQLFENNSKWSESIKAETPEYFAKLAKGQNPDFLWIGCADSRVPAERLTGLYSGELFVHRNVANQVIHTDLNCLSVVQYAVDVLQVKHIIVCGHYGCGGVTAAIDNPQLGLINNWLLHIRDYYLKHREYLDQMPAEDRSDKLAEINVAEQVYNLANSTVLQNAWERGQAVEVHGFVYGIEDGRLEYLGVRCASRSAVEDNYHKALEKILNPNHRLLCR

BpsCAγ = BpsCAγ (Burkholderia pseudomallei, UniProt Q63SQ4); assay type: biochemical; conditions: read-out: KI BpsCAγ
Sequence of BpsCAγ (Q63SQ4 1-174): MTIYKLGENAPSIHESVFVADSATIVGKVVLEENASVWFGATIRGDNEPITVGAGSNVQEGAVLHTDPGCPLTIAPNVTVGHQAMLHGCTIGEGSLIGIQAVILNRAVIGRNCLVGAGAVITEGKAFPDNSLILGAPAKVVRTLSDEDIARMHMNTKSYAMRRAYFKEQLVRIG

| Compound | Ki [1] [nM] | Ki (hCA IX) [nM] | Ki (γ-CA from E. coli) [nM] | Ki (hCA I) [nM] | Ki [2] [nM] | melting point [°C] | Ki (hCA II) [nM] | Ki (β-CA from E. coli) [µM] | Ki (hCA XII) [nM] | Ki [3] [nM] | Ki (BpsCAγ) [nM] | other results |
| --- | --- | --- | --- | --- | --- | --- | --- | --- | --- | --- | --- | --- |
| COC(=O)c1cn(CCS(N)(=O)=O)cc2c(=O)[nH]nc1-2 [Compound 1a, Methyl 3-oxo-5-(2-sulfamoylethyl)-3,5-dihydro-2H-pyrazolo[4,3-c]pyridine-7-carboxylate] | 783 | 97.9 | 61.8 | 8010 | 654 | > 300 | 7330 | 0.862 | 282 | 2330 | 913 | selectivity index (SI) for hCA I (hCA IX): 81.8 |
| COC(=O)c1cn(-c2ccc(S(N)(=O)=O)cc2)cc2c(=O)[nH]nc1-2 [Compound 1b, Methyl 3-oxo-5-(4-sulfamoylphenyl)-3,5-dihydro-2H-pyrazolo[4,3-c]pyridine-7-carboxylate] | 91 | 319 | 57.8 | 157 | 229 | > 300 | 51.4 | 3.46 | 358 | 844 | 513 | selectivity index (SI) against BpsCAβ (γ-CA from E. coli; E. coli γ-CA inhibitor): 3.96; selectivity index (SI) against BpsCAγ (γ-CA from E. coli; E. coli γ-CA inhibitor): 8.88; selectivity index (SI) against E. coli β (γ-CA from E. coli; E. coli γ-CA inhibitor): 59.8; selectivity index (SI) against PgiCAγ (γ-CA from E. coli; E. coli γ-CA inhibitor): 1.59 and 1.57 and 1.5; selectivity index (SI) against VhCAβ (γ-CA from E. coli; E. coli γ-CA inhibitor, E. coli γ versus VhCAβ): 14.6; decreased activity against hCA I (hCA I; compared with 1f): ~ 2.7 times |
| COC(=O)c1cn(-c2cccc(S(N)(=O)=O)c2)cc2c(=O)[nH]nc1-2 [Compound 1c, Methyl 3-oxo-5-(3-sulfamoylphenyl)-3,5-dihydro-2H-pyrazolo[4,3-c]pyridine-7-carboxylate] | 637 | 590 | 79.1 | 1440 | 785 | > 300 | 247 | 3.84 | 143 | 913 | 614 | – |
| COC(=O)C1=CN(Cc2ccc(S(N)(=O)=O)cc2)C=C2C(=O)N=NC21 (stereo not drawn) [Compound 1d, 3-oxo-5-(4-sulfamoylbenzyl)-3,5-dihydro-2H-pyrazolo[4,3-c]pyridine-7-carboxylate] | – | – | – | – | – | > 300 | – | – | – | – | – | – |
| COC(=O)c1cn(CCc2ccc(S(N)(=O)=O)cc2)cc2c(=O)[nH]nc1-2 [Compound 1e, Methyl 3-oxo-5-(4-sulfamoylphenethyl)-3,5-dihydro-2H-pyrazolo[4,3-c]pyridine-7-carboxylate] | 96.1 | 849 | 58.1 | 864 | 683 | > 300 | 658 | 3.14 | 397 | 840 | 1340 | selectivity index (SI) against BpsCAβ (γ-CA from E. coli; E. coli γ-CA inhibitor): 3.96; selectivity index (SI) against BpsCAγ (γ-CA from E. coli; E. coli γ-CA inhibitor): 8.88; selectivity index (SI) against E. coli β (γ-CA from E. coli; E. coli γ-CA inhibitor): 59.8; selectivity index (SI) against PgiCAγ (γ-CA from E. coli; E. coli γ-CA inhibitor): 1.59 |
| COC(=O)c1cn(CC(=O)Nc2ccc(S(N)(=O)=O)cc2)cc2c(=O)[nH]nc1-2 [Compound 1f] | 668 | 907 | 66.8 | 58.8 | 236 | > 300 | 6.6 | 3.65 | 475 | 467 | 2180 | selectivity index (SI) toward hCA I (hCA II): 9; selectivity index (SI) towards hCA IX (hCA II): 137.5; selectivity index (SI) towards hCA XII (hCA II): 71.9 |
| CC(=O)N1CC(Nc2ccc(S(N)(=O)=O)cc2)=CC1=O [Compound 1g, 4-((1-Acetyl-5-oxo-2,5-dihydro-1H-pyrrol-3-yl)amino)benzenesulfonamide] | 83.1 | 294 | 205 | 66.8 | 664 | 285 to 287 | 41.7 | 0.454 | 509 | 1450 | 97.1 | selectivity index (SI) towards VhCAβ ([1]; PgiCAγ inhibitor, PgiCAγ versus VhCAβ): 17.4 |
| CC(=O)N1CC(Nc2cccc(S(N)(=O)=O)c2)=CC1=O [Compound 1h, 3-((1-Acetyl-5-oxo-2,5-dihydro-1H-pyrrol-3-yl)amino)benzenesulfonamide] | 90 | 94.3 | 524 | 136 | 2960 | – | 61.7 | 0.712 | 714 | 2620 | 833 | – |
| Cc1cc(O)cc(=O)n1CCS(N)(=O)=O [Compound 1i, 2-(4-hydroxy-6-methyl-2-oxopyridin-1(2H)-yl)ethane-1-sulfonamide] | 95.6 | 79.6 | 92.7 | 5440 | 96.4 | 243 to 245 | 6790 | 3.05 | 105 | 2240 | 192 | selectivity index (SI) for hCA I (hCA IX): 74.9; selectivity index (SI) against VhCAβ [2]: 23.2; selectivity index (SI) against the β-CA from E. coli [2]: 31.6 |
| NS(=O)(=O)CCNC=C1C(=O)Oc2ccccc2C1=O [Compound 1j, 2-(((2,4-dioxochroman-3-ylidene)methyl)amino)ethane-1-sulfonamide] | 84.3 | 97.8 | 67.1 | 3860 | 789 | 197 to 199 | 5710 | 0.0949 | 285 | 642 | 625 | – |
| CC12CC(c3ccccc3O1)C(C(N)=O)C(=O)N2CCc1ccc(S(N)(=O)=O)cc1 (stereo not drawn) [Compound 1k, 2-methyl-4-oxo-3-(4-sulfamoylphenethyl)-3,4,5,6-tetrahydro-2H-2,6-methanobenzo[g][1,3]oxazocine-5-carboxamide] | 202 | 421 | 63.5 | 88.3 | 212 | 225 to 227 | 5.6 | 3.86 | 34.5 | 356 | 952 | selectivity index (SI) toward hCA I (hCA II): 15.8; selectivity index (SI) towards hCA IX (hCA II): 75.25; selectivity index (SI) towards hCA XII (hCA II): 6; selectivity index (SI) towards hCA IX (hCA XII; hCA XII inhibitor, hCA XII versus hCA IX): 12.2 |
